{"source": "ChEMBL document CHEMBL3046676", "about": "“Baseline susceptibility of Bemisia tabaci (Genn.) biotype B in southern Florida to cyantraniliprole” (2013)", "assay_type_in_all_cases": "functional", "key": {"[1]": {"test_system": "Bemisia tabaci", "test": "Insecticidal activity against field-collected population of Bemisia tabaci (sweet potato whitefly) biotype B Devil's garden KAC (F3) eggs in cotton seedlings cut stem assessed as mortality measured after 14 days by stabilization treatment based systemic uptake bioassay"}, "[2]": {"test_system": "Bemisia tabaci", "test": "Insecticidal activity against field-collected population of Bemisia tabaci (sweet potato whitefly) biotype B Myakka (F2) eggs in cotton seedlings cut stem assessed as mortality measured after 14 days by stabilization treatment based systemic uptake bioassay"}, "[3]": {"test_system": "Bemisia tabaci", "test": "Insecticidal activity against field-collected population of Bemisia tabaci (sweet potato whitefly) biotype B GCC-AM (p) (F2) adults infested in cotton seedlings cut stem assessed as mortality measured after 5 days by stabilization treatment based systemic uptake bioassay"}, "[4]": {"test_system": "Bemisia tabaci", "test": "Resistance ratio of LC50 for field-collected population of Bemisia tabaci (sweet potato whitefly) biotype B GCC-AM ST (F4-5) adults to LC50 for laboratory strain of Bemisia tabaci (sweet potato whitefly) biotype B adults"}, "[5]": {"test_system": "Bemisia tabaci", "test": "Resistance ratio of LC50 for field-collected population of Bemisia tabaci (sweet potato whitefly) biotype B GCC-AM (p) (F2) adults to LC50 for laboratory strain of Bemisia tabaci (sweet potato whitefly) biotype B adults"}, "[6]": {"test_system": "Bemisia tabaci", "test": "Insecticidal activity against field-collected population of Bemisia tabaci (sweet potato whitefly) biotype B GCC-EV-Tom (F4) eggs in cotton seedlings cut stem assessed as mortality measured after 14 days by stabilization treatment based systemic uptake bioassay"}, "[7]": {"test_system": "Bemisia tabaci", "test": "Insecticidal activity against field-collected population of Bemisia tabaci (sweet potato whitefly) biotype B Parrish (F3) eggs in cotton seedlings cut stem assessed as mortality measured after 14 days by stabilization treatment based systemic uptake bioassay"}, "[8]": {"test_system": "Bemisia tabaci", "test": "Insecticidal activity against field-collected population of Bemisia tabaci (sweet potato whitefly) biotype B Homestead #1 (F2-F3) eggs in cotton seedlings cut stem assessed as mortality measured after 14 days by stabilization treatment based systemic uptake bioassay"}, "[9]": {"test_system": "Bemisia tabaci", "test": "Insecticidal activity against field-collected population of Bemisia tabaci (sweet potato whitefly) biotype B GCC-AM ST (F4-5) adults infested in cotton seedlings cut stem assessed as mortality measured after 5 days by stabilization treatment based systemic uptake bioassay"}, "[10]": {"test_system": "Bemisia tabaci", "test": "Insecticidal activity against field-collected population of Bemisia tabaci (sweet potato whitefly) biotype B Cortez #1 (F4) adults infested in cotton seedlings cut stem assessed as mortality measured after 5 days by stabilization treatment based systemic uptake bioassay"}, "[11]": {"test_system": "Bemisia tabaci", "test": "Resistance ratio of LC50 for field-collected population of Bemisia tabaci (sweet potato whitefly) biotype B Cortez #1 (F4) adults to LC50 for laboratory strain of Bemisia tabaci (sweet potato whitefly) biotype B adults"}, "[12]": {"test_system": "Bemisia tabaci", "test": "Insecticidal activity against field-collected population of Bemisia tabaci (sweet potato whitefly) biotype B Homestead #1 (F4) eggs in cotton seedlings cut stem assessed as mortality measured after 14 days by stabilization treatment based systemic uptake bioassay"}, "[13]": {"test_system": "Bemisia tabaci", "test": "Insecticidal activity against laboratory strain of Bemisia tabaci (sweet potato whitefly) biotype B adults infested in cotton seedlings cut stem assessed as mortality measured after 5 days by stabilization treatment based systemic uptake bioassay"}}}
{"smiles": "CNC(=O)c1cc(C#N)cc(C)c1NC(=O)c1cc(Br)nn1-c1ncccc1Cl", "note": "[CYANTRANILIPROLE]", "values": [{"measurement": "LC50", "setting": "[1]", "value": 0.033, "unit": "mgAi/L"}, {"measurement": "LC50", "setting": "[2]", "value": 0.023, "unit": "mgAi/L"}, {"measurement": "LC50", "setting": "[3]", "value": 0.059, "unit": "mgAi/L"}, {"measurement": "RatioLC50", "setting": "[4]", "value": 0.752}, {"measurement": "RatioLC50", "setting": "[5]", "value": 1.207}, {"measurement": "LC50", "setting": "[6]", "value": 0.034, "unit": "mgAi/L"}, {"measurement": "LC50", "setting": "[7]", "value": 0.015, "unit": "mgAi/L"}, {"measurement": "LC50", "setting": "[8]", "value": 0.013, "unit": "mgAi/L"}, {"measurement": "LC50", "setting": "[9]", "value": 0.037, "unit": "mgAi/L"}, {"measurement": "LC50", "setting": "[10]", "value": 0.058, "unit": "mgAi/L"}, {"measurement": "RatioLC50", "setting": "[11]", "value": 1.174}, {"measurement": "LC50", "setting": "[12]", "value": 0.023, "unit": "mgAi/L"}, {"measurement": "LC50", "setting": "[13]", "value": 0.049, "unit": "mgAi/L"}]}
